Assay results as given in PubChem BioAssay AID504393 (Southern Research Specialized Biocontainment Screening …, 2011).
Activity calls are given as the source filed them. How the calls were made is not given here.

test system: MAGI cells cytotoxicity, % cell control, 2% serum; test: host cell viability for CXCR4-tropic HIV-1 MAGI assay – MAGI cells, 2% serum, TC50, cytotoxicity control for HIV-1 antiviral lead project, dose response (AID 504393)

Compound | TC50
COc1ccc(-c2ccc(/C=C3\SC(=S)N(CCCC(=O)O)C3=O)o2)cc1 | > 100 µM (inactive)
CS(=O)(=O)C1=NSC2=NC(=O)/C(=C\c3cccn3-c3ccc(F)cc3)C(=N)N21 | > 100 µM (inactive)
Cc1c2c(=O)n(-c3nc4ccccc4s3)nc-2cc(O)n1Cc1ccncc1 | 85.9 µM
CCOC(=O)C1=C(C)N=c2s/c(=C\c3ccc(OCC(=O)O)cc3)c(=O)n2C1c1ccc(Cl)cc1 (centres undefined) | > 100 µM (inactive)
Cc1c2c(=O)n(-c3nc4ccccc4s3)nc-2cc(O)n1Cc1cccnc1 | 99.2 µM
COc1ccccc1Cn1c(O)cc2nn(-c3nc4ccccc4s3)c(=O)c-2c1C | 45.7 µM
O=C(O)c1ccc([C@@H]2Nc3ccc(S(=O)(=O)Nc4cccc5ccccc45)cc3[C@@H]3C=CC[C@@H]32)cc1 | 54.8 µM
CS(=O)(=O)C1=NSC2=NC(=O)/C(=C\c3cccn3-c3cc(Cl)cc(Cl)c3)C(=N)N21 | 36.5 µM
Cc1ccc(-n2cccc2/C=C2/C(=N)N3C(=NC2=O)SN=C3S(C)(=O)=O)cc1C | 48.9 µM
COc1ccc(CCn2c(O)cc3nn(-c4nc5ccccc5s4)c(=O)c-3c2C)cc1 | > 100 µM (inactive)
O=C(O)CCCN1C(=O)/C(=C/c2ccc(-c3ccc(Cl)c(Cl)c3)o2)SC1=S | 11.7 µM
COc1cccc(-n2cccc2/C=C2/C(=N)N3C(=NC2=O)SN=C3S(C)(=O)=O)c1 | 57.6 µM
O=C(O)CCCN1C(=O)/C(=C/c2ccc(-c3cccc(C(F)(F)F)c3)o2)SC1=S | > 100 µM (inactive)
COc1ccc(Cn2c(O)cc3nn(-c4nc5ccccc5s4)c(=O)c-3c2C)cc1 | 56.3 µM
CCOC(=O)C1=C(C)N=c2sc(=Cc3ccc(OCC(=O)O)cc3)c(=O)n2C1c1ccc(OC)cc1OC (centres undefined) | > 100 µM (inactive)
CCOC(=O)C1=C(C)N=c2sc(=Cc3ccc(OCC(=O)O)cc3)c(=O)n2C1c1ccccc1 (centres undefined) | > 100 µM (inactive)
COc1ccc(-n2cccc2/C=C2/C(=N)N3C(=NC2=O)SN=C3S(C)(=O)=O)cc1Cl | 42.4 µM
Nc1sc2ccccc2[n+]1Cc1ccc(C(=O)O)cc1 | > 100 µM (inactive)
Cc1c2c(=O)n(-c3nc4ccccc4s3)nc-2cc(O)n1CCC(C)C | 65.1 µM
O=C(O)c1ccc(C[n+]2c(-c3ccccc3)csc2Nc2ccccc2)cc1 | 80.6 µM

Compound | TC50
Cc1c2c(=O)n(-c3nc4ccccc4s3)nc-2cc(O)n1Cc1ccccc1Cl | 82 µM
CCOc1ccc(-n2cccc2/C=C2/C(=N)N3C(=NC2=O)SN=C3S(C)(=O)=O)cc1 | 42.6 µM
Cc1c2c(=O)n(-c3nc4ccccc4s3)nc-2cc(O)n1CCc1ccc(O)cc1 | 37.6 µM
CCOC(=O)C1=C(C)N=c2sc(=Cc3ccc(OCC(=O)O)cc3)c(=O)n2C1c1cc(OC)c(OC)c(OC)c1 (centres undefined) | > 100 µM (inactive)
CS(=O)(=O)C1=NSC2=NC(=O)/C(=C\c3cccn3-c3ccc(Cl)c(Cl)c3)C(=N)N21 | 56.7 µM
CCOC(=O)C1=C(C)N=c2s/c(=C\c3ccc(OCC(=O)O)cc3)c(=O)n2C1c1ccc(OC)c(OCC)c1 (centres undefined) | > 100 µM (inactive)
CC1=C(C(=O)OC(C)C)C(c2ccc(Cl)cc2)n2c(s/c(=C\c3ccc(OCC(=O)O)cc3)c2=O)=N1 (centres undefined) | > 100 µM (inactive)
Cc1c2c(=O)n(-c3nc4ccccc4s3)nc-2cc(O)n1Cc1ccc(F)cc1 | 70.4 µM
COc1cccc(C2C(C(=O)Nc3ccccc3)=C(C)N=c3sc(=Cc4ccc(OCC(=O)O)cc4)c(=O)n32)c1 (centres undefined) | > 100 µM (inactive)
CCOC(=O)C1=C(C)N=c2sc(=Cc3ccc(OCC(=O)O)cc3)c(=O)n2C1c1ccccc1OC (centres undefined) | > 100 µM (inactive)
CCOC(=O)C1=C(c2ccccc2)N=c2s/c(=C\c3ccc(OCC(=O)O)cc3)c(=O)n2C1c1cccc(OC)c1 (centres undefined) | 57.5 µM
CS(=O)(=O)C1=NSC2=NC(=O)/C(=C\c3cccn3-c3cccc(Cl)c3)C(=N)N21 | > 100 µM (inactive)
O=C(O)CCCN1C(=O)/C(=C\c2ccc(-c3cccc(Cl)c3)o2)SC1=S | 40 µM
CS(=O)(=O)C1=NSC2=NC(=O)/C(=C\c3cccn3-c3cccc(C(F)(F)F)c3)C(=N)N21 | 79.5 µM
CCc1ccc(-n2cccc2/C=C2/C(=N)N3C(=NC2=O)SN=C3S(C)(=O)=O)cc1 | 49.7 µM
O=C(O)CCC(C(=O)O)N1C(=O)/C(=C\c2ccco2)SC1=S (centres undefined) | > 100 µM (inactive)
CCc1ccc(-c2ccc(/C=C3\SC(=S)N(CCCC(=O)O)C3=O)o2)cc1 | > 100 µM (inactive)
O=C(O)CCCN1C(=O)/C(=C/c2cc3ccccc3o2)SC1=S | 83.6 µM
Cc1ccc(-c2ccc(/C=C3\SC(=S)N(CCCC(=O)O)C3=O)o2)cc1 | > 100 µM (inactive)
